Patent publication US20200267980A1, “Herbicidally Active Pyridyl-/Pyrimidyl-Pyrimidine Derivatives” (Syngenta Participations AG, priority 2017, published 2020)

Key:
Format in all cases: in vivo
[1] = test system: Alopecurus myosuroides (ALOMY); assay: Pre-emergence herbicidal activity, glasshouse pot test; design: key: 5=total damage to plant; 0=no damage to plant; settings: 1000 g/ha, pre-emergence spray, evaluated after 13 days, damage score 0-5
Method: (§1) Seeds of a variety of test species were sown in standard soil in pots: Triticum aestivium (TRZAW), Avena fatua (AVEFA), Alopecurus myosuroides (ALOMY), Echinochloa crus-galli (ECHCG), Lolium perenne (LOLPE), and Setaria faberi (SETFA). After cultivation for one day (pre-emergence) under controlled conditions in a glasshouse (at 24/16° C., day/night; 14 hours light; 65% humidity), the plants were sprayed with an aqueous spray solution derived from the formulation of the technical active ingredient in acetone/water (50:50) solution containing 0.5% Tween 20 (polyoxyethelyene sorbitan monolaurate, CAS RN 9005-64-5). The test plants were then grown in a glasshouse under controlled conditions (at 24/16° C., day/night; 14 hours light; 65% humidity) and watered twice daily. After 13 days, the test was evaluated (5=total damage to plant; 0=no damage to plant).

[2] = test system: Avena fatua (AVEFA); assay: as above; design: key: 5=total damage to plant; 0=no damage to plant; settings: 1000 g/ha, pre-emergence spray, evaluated after 13 days, damage score 0-5
Method: as §1

[3] = test system: Echinochloa crus-galli (ECHCG); assay: as above; design: key: 5=total damage to plant; 0=no damage to plant; settings: 1000 g/ha, pre-emergence spray, evaluated after 13 days, damage score 0-5
Method: as §1

[4] = test system: Lolium perenne (LOLPE); assay: as above; design: key: 5=total damage to plant; 0=no damage to plant; settings: 1000 g/ha, pre-emergence spray, evaluated after 13 days, damage score 0-5
Method: as §1

[5] = test system: Setaria faberi (SETFA); assay: as above; design: key: 5=total damage to plant; 0=no damage to plant; settings: 1000 g/ha, pre-emergence spray, evaluated after 13 days, damage score 0-5
Method: as §1

[6] = test system: Triticum aestivium (TRZAW); assay: as above; design: key: 5=total damage to plant; 0=no damage to plant; settings: 1000 g/ha, pre-emergence spray, evaluated after 13 days, damage score 0-5
Method: as §1

[7] = test system: Alopecurus myosuroides (ALOMY); assay: Post-emergence herbicidal activity, glasshouse pot test; design: key: 5=total damage to plant; 0=no damage to plant; settings: 1000 g/ha, post-emergence spray after 8 days cultivation, evaluated after 13 days, damage score 0-5
Method: (§2) Seeds of a variety of test species were sown in standard soil in pots: Triticum aestivium (TRZAW), Avena fatua (AVEFA), Alopecurus myosuroides (ALOMY), Echinochloa crus-galli (ECHCG), Lolium perenne (LOLPE), and Setaria faberi (SETFA). After 8 days cultivation (post-emergence) under controlled conditions in a glasshouse (at 24/16° C., day/night; 14 hours light; 65% humidity), the plants were sprayed with an aqueous spray solution derived from the formulation of the technical active ingredient in acetone/water (50:50) solution containing 0.5% Tween 20 (polyoxyethelyene sorbitan monolaurate, CAS RN 9005-64-5). The test plants were then grown in a glasshouse under controlled conditions (at 24/16° C., day/night; 14 hours light; 65% humidity) and watered twice daily. After 13 days, the test was evaluated (5=total damage to plant; 0=no damage to plant).

[8] = test system: Echinochloa crus-galli (ECHCG); assay: as above; design: key: 5=total damage to plant; 0=no damage to plant; settings: 1000 g/ha, post-emergence spray after 8 days cultivation, evaluated after 13 days, damage score 0-5
Method: as §2

[9] = test system: Lolium perenne (LOLPE); assay: as above; design: key: 5=total damage to plant; 0=no damage to plant; settings: 1000 g/ha, post-emergence spray after 8 days cultivation, evaluated after 13 days, damage score 0-5
Method: as §2

[10] = test system: Setaria faberi (SETFA); assay: as above; design: key: 5=total damage to plant; 0=no damage to plant; settings: 1000 g/ha, post-emergence spray after 8 days cultivation, evaluated after 13 days, damage score 0-5
Method: as §2

[11] = test system: Triticum aestivium (TRZAW); assay: as above; design: key: 5=total damage to plant; 0=no damage to plant; settings: 1000 g/ha, post-emergence spray after 8 days cultivation, evaluated after 13 days, damage score 0-5
Method: as §2

[12] = test system: Avena fatua (AVEFA); assay: as above; settings: 1000 g/ha, post-emergence spray after 8 days cultivation, evaluated after 13 days, damage score 0-5
Method: as §2

SMILES | Control of weed species after pre-emergence application, ALOMY [1] | Control of weed species after pre-emergence application, AVEFA [2] | Control of weed species after pre-emergence application, ECHCG [3] | Control of weed species after pre-emergence application, LOLPE [4] | Control of weed species after pre-emergence application, SETFA [5] | Control of weed species after pre-emergence application, TRAZW [6] | Control of weed species after post-emergence application, ALOMY [7] | Control of weed species after post-emergence application, ECHCG [8] | Control of weed species after post-emergence application, LOLPE [9] | Control of weed species after post-emergence application, SETFA [10] | Control of weed species after post-emergence application, TRAZW [11] | Control of weed species after post-emergence application, AVEFA [12]
O=C1CCCCN1c1cnc(-c2cncc(F)c2)nc1C(F)(F)F [Compound F29] | 1 | 0 | 2 | 1 | 3 | 1 | 0 | 4 | 1 | 5 | 0 | 3
O=C(Nc1cnc(-c2cncc(F)c2)nc1C(F)(F)F)C1CC1 [Compound F14, N-[2-(5-fluoro-3-pyridyl)-4-(trifluoromethyl)-pyrimidin-5-yl]cyclopropanecarboxamide] | 0 | 2 | 4 | 2 | – | 0 | 0 | 5 | 4 | 5 | 1 | 3
COCCC(=O)Nc1cnc(-c2cncc(F)c2)nc1C(F)(F)F [Compound F15] | 0 | 2 | 4 | 0 | – | 0 | 0 | 4 | 2 | 5 | 1 | 3
CC(=O)Nc1cnc(-c2cncc(F)c2)nc1C(F)(F)F [Compound F11] | 0 | 2 | 4 | 1 | – | 0 | 1 | 4 | 2 | 5 | 1 | 3
Cc1nc(-c2cncnc2)ncc1N(C(=O)C(C)C)C(=O)C(C)C [Compound F2, 2-methyl-N-(2-methylpropanoyl)-N-(4-methyl-2-pyrimidin-5-yl-pyrimidin-5-yl)propanamide] | 0 | 2 | 4 | 0 | 5 | 0 | 0 | 5 | 1 | – | 0 | 3
Cc1nc(-c2cncnc2)ncc1NC(=O)C(C)C [Compound F1, 2-methyl-N-(4-methyl-2-pyrimidin-5-yl-pyrimidin-5-yl)propanamide] | 0 | 2 | 3 | 0 | 5 | 0 | 0 | 4 | 1 | – | 0 | 3
CC(C)C(=O)Nc1cnc(-c2cncc(F)c2)nc1C(F)(F)F [Compound F13] | 0 | 2 | 4 | 1 | – | 0 | 0 | 5 | 2 | 5 | 0 | 3
CCCCC(=O)Nc1cnc(-c2cncc(F)c2)nc1C(F)(F)F [Compound F12] | 0 | 2 | 3 | 1 | – | 0 | 0 | 4 | 2 | 5 | 0 | 3
